For this assay, the system named is Wnt activity (Sp5-Luc reporter, human Sp5 promoter with eight TCF/LEF binding sites) in SW480 colon carcinoma cells. The assay is described as follows: Screening assay for Wnt activity: Sp5-Luc reporter gene assay in SW480 cells. To be noted: for inhibition at 10 µM: read-out: percent inhibition at 10 μM (given for EC50 of >10 μM); for EC50: 10-point dose-response starting from 10 μM, overnight incubation. It counts as cell-based. The essentials:
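Luminescence (BrightGlo) read after overnight 37 °C exposure of Sp5-Luc SW480 reporter cells, 4,000/well in 1% FBS, to compound dosed 1:3 over 10 points from 10 μM with 0.1% DMSO. Values normalized to DMSO-only cells, fitted with variable-slope four-parameter model; where EC50 exceeds 10 μM, % inhibition at 10 μM reported.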

Some results are limits rather than exact numbers.

Consider `c1cncc(-c2cncc3[nH]c(-c4n[nH]c5ccc(-c6cncc(OC7CCCCC7)c6)nc45)nc23)c1` [Compound 531, 5-(5-(Cyclohexyloxy)pyridin-3-yl)-3-(7-(pyridin-3-yl)-3H-imidazo[4,5-c]pyridin-2-yl)-1H-pyrazolo[4,3-b]pyridine], for which the inhibition at 10 µM was 24.3% and the EC50 is > 10 µM.

As for `c1cc(-c2cncc3[nH]c(-c4n[nH]c5ccc(-c6cncc(OC7CCNCC7)c6)nc45)nc23)ccn1` [Compound 548, 5-(5-(Piperidin-4-yloxy)pyridin-3-yl)-3-(7-(pyridin-4-yl)-3H-imidazo[4,5-c]pyridin-2-yl)-1H-pyrazolo[4,3-b]pyridine], the inhibition at 10 µM amounted to 16.1% and the EC50 was > 10 µM.

Take `O=C(Nc1cncc(-c2ccc3[nH]nc(-c4nc5c(-c6ccccc6F)cncc5[nH]4)c3n2)c1)C1CCCC1` [Compound 78, N-(5-(3-(7-(2-Fluorophenyl)-3H-imidazo[4,5-c]pyridin-2-yl)-1H-pyrazolo[4,3-b]pyridin-5-yl)pyridin-3-yl)cyclopentanecarboxamide]: the inhibition at 10 µM came to 6.6% and the EC50 was > 10 µM.

Consider `c1csc(-c2cncc3[nH]c(-c4n[nH]c5ccc(-c6ccncc6)nc45)nc23)c1` [Compound 326, 5-(Pyridin-4-yl)-3-(7-(thiophen-2-yl)-3H-imidazo[4,5-c]pyridin-2-yl)-1H-pyrazolo[4,3-b]pyridine], for which the inhibition at 10 µM is 12.7% and the EC50 was > 10 µM.

As for `CS(=O)(=O)NCc1cc(F)cc(-c2cncc3[nH]c(-c4n[nH]c5ccc(-c6cncc(NC(=O)CC7CCNCC7)c6)nc45)nc23)c1` [Compound 725, N-(5-(3-(7-(3-Fluoro-5-(methylsulfonamidomethyl)phenyl)-3H-imidazo[4,5-c]pyridin-2-yl)-1H-pyrazolo[4,3-b]pyridin-5-yl)pyridin-3-yl)-2-(piperidin-4-yl)acetamide], the inhibition at 10 µM worked out at 11.2% and the EC50 is > 10 µM.

For the molecule `Cn1cc(-c2ccc3[nH]nc(-c4nc5c(-c6cccs6)cncc5[nH]4)c3n2)cn1` [Compound 656, 5-(1-Methyl-1H-pyrazol-4-yl)-3-(7-(thiophen-2-yl)-3H-imidazo[4,5-c]pyridin-2-yl)-1H-pyrazolo[4,3-b]pyridine], the inhibition at 10 µM came out at 3% and the EC50 was > 10 µM.

Take `c1ccc(CNCc2cncc(-c3ccc4[nH]nc(-c5nc6c(-c7cccnc7)cncc6[nH]5)c4n3)c2)cc1` [Compound 108, N-Benzyl-1-(5-(3-(7-(pyridin-3-yl)-3H-imidazo[4,5-c]pyridin-2-yl)-1H-pyrazolo[4,3-b]pyridin-5-yl)pyridin-3-yl)methanamine]: the inhibition at 10 µM was determined as 5.3% and the EC50 was > 10 µM.

`COc1cccc(-c2cncc3[nH]c(-c4n[nH]c5ccc(-c6cncc(NC(=O)CC(C)(C)C)c6)nc45)nc23)c1` [Compound 961, N-(5-(3-(7-(3-methoxylphenyl)-3H-imidazo[4,5-c]pyridin-2-yl)-1H-pyrazolo[4,3-b]pyridin-5-yl)pyridin-3-yl)-3,3-dimethylbutanamide]: the inhibition at 10 µM worked out at 0% and the EC50 is > 10 µM.

Regarding `O=C(Nc1cncc(-c2ccc3[nH]nc(-c4nc5c(-c6ccsc6)cncc5[nH]4)c3n2)c1)c1ccccc1` [Compound 263, N-(5-(3-(7-(Thiophen-3-yl)-3H-imidazo[4,5-c]pyridin-2-yl)-1H-pyrazolo[4,3-b]pyridin-5-yl)pyridin-3-yl)benzamide], the inhibition at 10 µM was 7.6% and the EC50 is > 10 µM.

`CN(C)CCOc1cncc(-c2ccc3[nH]nc(-c4nc5c(-c6cccs6)cncc5[nH]4)c3n2)c1` [Compound 663, N,N-Dimethyl-2-((5-(3-(7-(thiophen-2-yl)-3H-imidazo[4,5-c]pyridin-2-yl)-1H-pyrazolo[4,3-b]pyridin-5-yl)pyridin-3-yl)oxy)ethan-1-amine]: the inhibition at 10 µM amounted to 46.7% and the EC50 is > 10 µM.

In the case of `CC(C)(C)CC(=O)Nc1cncc(-c2ccc3[nH]nc(-c4nc5c(-c6ccccc6F)cncc5[nH]4)c3n2)c1` [Compound 72, N-(5-(3-(7-(2-fluorophenyl)-3H-imidazo[4,5-c]pyridin-2-yl)-1H-pyrazolo[4,3-b]pyridin-5-yl)pyridin-3-yl)-3,3-dimethylbutanamide], the inhibition at 10 µM stood at 5.7% and the EC50 is > 10 µM.

On to `NC1CN(c2cncc(-c3ccc4[nH]nc(-c5nc6c(-c7ccc(Cl)s7)cncc6[nH]5)c4n3)n2)C1` [Compound 1023, 1-(6-(3-(7-(5-Chlorothiophen-2-yl)-3H-imidazo[4,5-c]pyridin-2-yl)-1H-pyrazolo[4,3-b]pyridin-5-yl)pyrazin-2-yl)azetidin-3-amine], for which the inhibition at 10 µM came to 24.3% and the concentration giving a half-maximal response (EC50) is > 10 µM.

`c1cc2c(cc1-c1cncc3[nH]c(-c4n[nH]c5ccc(C6CCNCC6)nc45)nc13)OCO2` [Compound 1063, 3-(7-(Benzo[d][1,3]dioxol-5-yl)-3H-imidazo[4,5-c]pyridin-2-yl)-5-(piperidin-4-yl)-1H-pyrazolo[4,3-b]pyridine]: the inhibition at 10 µM turned out to be 10.5% and the EC50 was > 10 µM.

Take `c1cc(-c2cncc3[nH]c(-c4n[nH]c5ccc(-c6cnccn6)nc45)nc23)ccn1` [Compound 556, 5-(Pyrazin-2-yl)-3-(7-(pyridin-4-yl)-3H-imidazo[4,5-c]pyridin-2-yl)-1H-pyrazolo[4,3-b]pyridine]: the inhibition at 10 µM is 9.5% and the EC50 is > 10 µM.

Regarding `COc1cccc(-c2cncc3[nH]c(-c4n[nH]c5ccc(-c6cn[nH]c6)nc45)nc23)c1` [Compound 975, 3-(7-(3-Methoxylphenyl)-3H-imidazo[4,5-c]pyridin-2-yl)-5-(1H-pyrazol-4-yl)-1H-pyrazolo[4,3-b]pyridine], the inhibition at 10 µM was determined as 2% and the EC50 was > 10 µM.

For `Cn1cc(-c2ccc3[nH]nc(-c4nc5c(-c6ccc7c(c6)OCO7)cncc5[nH]4)c3n2)c(CO)n1` [Compound 1106, (4-(3-(7-(Benzo[d][1,3]dioxol-5-yl)-3H-imidazo[4,5-c]pyridin-2-yl)-1H-pyrazolo[4,3-b]pyridin-5-yl)-1-methyl-1H-pyrazol-3-yl)methanol], the inhibition at 10 µM is 24.7% and the EC50 is > 10 µM.

Regarding `Cn1cc(-c2ccc3[nH]nc(-c4nc5c(N6CCCCC6)cncc5[nH]4)c3n2)c(CO)n1` [Compound 1089, (1-Methyl-4-(3-(7-(piperidin-1-yl)-3H-imidazo[4,5-c]pyridin-2-yl)-1H-pyrazolo[4,3-b]pyridin-5-yl)-1H-pyrazol-3-yl)methanol], the inhibition at 10 µM is 24.2% and the EC50 is > 10 µM.

For the molecule `CS(=O)(=O)NCc1cc(F)cc(-c2cncc3[nH]c(-c4n[nH]c5ccc(-c6cncc(CNCc7ccccc7)c6)nc45)nc23)c1` [Compound 472, N-(3-(2-(5-(5-((Benzylamino)methyl)pyridin-3-yl)-1H-pyrazolo[4,3-b]pyridin-3-yl)-3H-imidazo[4,5-c]pyridin-7-yl)-5-fluorobenzyl)methanesulfonamide], the inhibition at 10 µM came out at 20.1% and the EC50 is > 10 µM.

In the case of `CS(=O)(=O)NCc1cc(F)cc(-c2cncc3[nH]c(-c4n[nH]c5ccc(-c6cncc(NC(=O)c7ccccc7)c6)nc45)nc23)c1` [Compound 459, N-(5-(3-(7-(3-Fluoro-5-(methylsulfonamidomethyl)phenyl)-3H-imidazo[4,5-c]pyridin-2-yl)-1H-pyrazolo[4,3-b]pyridin-5-yl)pyridin-3-yl)benzamide], the inhibition at 10 µM came out at 9.6% and the EC50 was > 10 µM.

Consider `CN1CCN(c2cncc3[nH]c(-c4n[nH]c5ccc(-c6cncnc6)nc45)nc23)CC1` [Compound 251, 3-(7-(4-Methylpiperazin-1-yl)-3H-imidazo[4,5-c]pyridin-2-yl)-5-(pyrimidin-5-yl)-1H-pyrazolo[4,3-b]pyridine], for which the inhibition at 10 µM amounted to 14.4% and the EC50 is > 10 µM.

Turning to `COc1cccc(-c2cncc3[nH]c(-c4n[nH]c5ccc(-c6cncc(NC(=O)Cc7ccccc7)c6)nc45)nc23)c1` [Compound 955, N-(5-(3-(7-(3-methoxylphenyl)-3H-imidazo[4,5-c]pyridin-2-yl)-1H-pyrazolo[4,3-b]pyridin-5-yl)pyridin-3-yl)-2-phenylacetamide], the inhibition at 10 µM is 21.5% and the EC50 was > 10 µM.

`CS(=O)(=O)NCc1cc(F)cc(-c2cncc3[nH]c(-c4n[nH]c5ccc(-c6cncnc6)nc45)nc23)c1` [Compound 475, N-(3-Fluoro-5-(2-(5-(pyrimidin-5-yl)-1H-pyrazolo[4,3-b]pyridin-3-yl)-3H-imidazo[4,5-c]pyridin-7-yl)benzyl)methanesulfonamide]: the inhibition at 10 µM came to 31.4% and the EC50 is > 10 µM.

Consider `c1cc(-c2ccc3[nH]nc(-c4nc5c(-c6ccncc6)cncc5[nH]4)c3n2)ccn1` [Compound 130, 5-(pyridin-4-yl)-3-(7-(pyridin-4-yl)-3H-imidazo[4,5-c]pyridin-2-yl)-1H-pyrazolo[4,3-b]pyridine], for which the inhibition at 10 µM is 9.8% and the EC50 was > 10 µM.

Take `CN1CCN(c2cncc3[nH]c(-c4n[nH]c5ccc(-c6cncc(NC(=O)C7CCCC7)c6)nc45)nc23)CC1` [Compound 246, N-(5-(3-(7-(4-Methylpiperazin-1-yl)-3H-imidazo[4,5-c]pyridin-2-yl)-1H-pyrazolo[4,3-b]pyridin-5-yl)pyridin-3-yl)cyclopentanecarboxamide]: the inhibition at 10 µM was found to be 3.9% and the EC50 was > 10 µM.

On to `c1ccc(COc2cncc(-c3ccc4[nH]nc(-c5nc6c(-c7ccncc7)cncc6[nH]5)c4n3)c2)cc1` [Compound 554, 5-(5-(Benzyloxy)pyridin-3-yl)-3-(7-(pyridin-4-yl)-3H-imidazo[4,5-c]pyridin-2-yl)-1H-pyrazolo[4,3-b]pyridine], for which the inhibition at 10 µM was 0% and the EC50 was > 10 µM.

The values above are taken from patent publication US10188634B2, “3-(3H-imidazo[4,5-C]pyridin-2-yl)-1 H-pyrazolo[4,3-B]pyridines and therapeutic uses thereof” (Samumed, LLC, priority 2015, dated 2019).
